The results in this text go back to PubChem BioAssay AID330 (DTP/NCI, 2004).

Where “and” joins values, the source holds several entries; their conditions need not be identical. Equal values may be shown once. Toxic doses and inconclusive results are not listed.

For the experiment, the system named is P388 leukemia ip, CD2F1 mice, survival T/C. Description: NCI In Vivo Anticancer Drug Screen. Data for tumor model P388 Leukemia (intraperitoneal) in CD2F1 (CDF1) mice. To be noted: endpoint: median survival time, higher = longer survival. An outline of the steps:
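Mice carrying the transplanted tumor received test compound or vehicle. Survival was recorded in each group, and the value is the treated-group measurement divided by that of the vehicle-treated control group.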

Setting [1] is: dose: 50.0 mg/kg/injection, schedule: Q01DX005 (ip), vehicle: saline with Tween-80.
Setting [2] is: dose: 100.0 mg/kg/injection, schedule: Q01DX005 (ip), vehicle: saline with Tween-80.
Setting [3] is: dose: 50.0 mg/kg/injection, schedule: Q01DX009 (ip), vehicle: Klucel (hydroxypropylcellulose) (HPC).
[4] abbreviates: dose: 100.0 mg/kg/injection, schedule: Q01DX009 (ip), vehicle: Klucel (hydroxypropylcellulose) (HPC).
The mark [5] stands for this setting: dose: 200.0 mg/kg/injection, schedule: Q01DX009 (ip), vehicle: Klucel (hydroxypropylcellulose) (HPC).
Where [6] appears, read: dose: 200.0 mg/kg/injection, schedule: Q01DX005 (ip), vehicle: saline with Tween-80.
The mark [7] stands for this setting: dose: 50.0 mg/kg/injection, schedule: Q01DX005 (ip), vehicle: saline.
The mark [8] stands for this setting: dose: 100.0 mg/kg/injection, schedule: Q01DX005 (ip), vehicle: saline.
The mark [9] stands for this setting: dose: 200.0 mg/kg/injection, schedule: Q01DX005 (ip), vehicle: saline.
Where [10] appears, read: dose: 50.0 mg/kg/injection, schedule: Q01DX005 (ip), vehicle: Klucel (hydroxypropylcellulose) (HPC).
Setting [11] is: dose: 200.0 mg/kg/injection, schedule: Q01DX005 (ip), vehicle: Klucel (hydroxypropylcellulose) (HPC).
Where [12] appears, read: dose: 60.0 mg/kg/injection, schedule: Q01DX005 (ip), vehicle: saline with Tween-80.
The mark [13] stands for this setting: dose: 120.0 mg/kg/injection, schedule: Q01DX005 (ip), vehicle: saline with Tween-80.
[14] abbreviates: dose: 240.0 mg/kg/injection, schedule: Q01DX005 (ip), vehicle: saline with Tween-80.
Where [15] appears, read: dose: 100.0 mg/kg/injection, schedule: Q01DX005 (ip), vehicle: Klucel (hydroxypropylcellulose) (HPC).
Setting [16] is: dose: 50.0 mg/kg/injection, schedule: Q01DX009 (ip), vehicle: saline.
The mark [17] stands for this setting: dose: 100.0 mg/kg/injection, schedule: Q01DX009 (ip), vehicle: saline.
Setting [18] is: dose: 200.0 mg/kg/injection, schedule: Q01DX009 (ip), vehicle: saline.

Regarding `COCCOc1cccc2c1C(=O)c1ccccc1C2=O`, the T/C under setting [1] is 102 % of control and the T/C under setting [2] was 91 % of control.

Take `O=C(O)[C@@H]1[C@H]2C[C@H]3c4[nH]c5ccccc5c4CCN3C[C@@H]2CC[C@@H]1O`: the T/C is 87 % of control (dose: 25.0 mg/kg/injection, schedule: Q01DX009 (ip), vehicle: Klucel (hydroxypropylcellulose) (HPC)); 88 % of control under setting [3]; 100 % of control under setting [4]; 101 % of control under setting [5].

`c1ccc(N2N=NC3CCOC32)cc1` (stereo not given): the T/C by setting is: under setting [1], 94 % of control; under setting [2], 102 % of control; under setting [6], 106 % of control.

Regarding `O=C(O)c1cc(Cl)nnc1Cl`, the T/C runs as follows: under setting [7], 109 % of control; under setting [8], 100 % of control; under setting [9], 104 % of control.

Take `O=C(Cc1cc(-c2ccccc2)nc(=O)[nH]1)c1ccccc1`: the T/C reads like this: (dose: 100.0 mg/kg/injection, schedule: Q04DX002 (ip), vehicle: saline with Tween-80) 97 % of control; (dose: 200.0 mg/kg/injection, schedule: Q04DX002 (ip), vehicle: saline with Tween-80) 93 % of control.

With `COc1cc2c(cc1O)c(O)cc1c3cc(OC)c(OC)cc3c[n+](C)c21`, the T/C reads like this: (dose: 25.0 mg/kg/injection, schedule: Q01DX005 (ip), vehicle: Klucel (hydroxypropylcellulose) (HPC)) 152 % of control; under setting [10], 153 % of control and 160 % of control; under setting [11], 156 % of control and 159 % of control.

On to `O=C(O)Cc1cc(Cl)ccc1C(=O)O`, for which the T/C by setting is: under setting [1], 97 % of control; under setting [2], 97 % of control; under setting [6], 97 % of control.

On to `NC1CNC(=O)NC1=O` (stereo not given), for which the T/C by setting is: under setting [7], 101 % of control; under setting [8], 100 % of control; under setting [9], 101 % of control.

Take `O=C(O)C1CCC(=O)N1Cc1csc(-c2ccccc2)n1` (stereo not given): the T/C under setting [12] was 103 % of control, the T/C under setting [13] is 93 % of control and the T/C under setting [14] was 99 % of control.

For the compound `Cc1cc2c(c(C#N)c1C)NC(=O)CN=C2c1ccccc1F`, the T/C reads like this: under setting [12], 96 % of control; under setting [13], 98 % of control; under setting [14], 95 % of control.

`CCCCCCCCN1CCS(=O)(=O)CC1`: the T/C is 89 % of control under setting [3], 94 % of control under setting [4] and 93 % of control under setting [5].

`CC(C)O[Si](OC(C)C)(OC(C)C)OC(C)C`: the T/C runs as follows: under setting [3], 101 % of control; under setting [4], 105 % of control; under setting [5], 105 % of control.

With `O=c1[nH]c(Cl)nc2nc(Cl)[nH]c12`, the T/C under setting [10] is 100 % of control, the T/C under setting [15] was 101 % of control and the T/C under setting [11] was 100 % of control.

In the case of `COc1cc(N)ccc1NC(=O)c1ccccc1`, the T/C is 109 % of control (dose: 6.25 mg/kg/injection, schedule: Q01DX009 (ip), vehicle: saline with Tween-80) and 100 % of control (dose: 12.5 mg/kg/injection, schedule: Q01DX009 (ip), vehicle: saline with Tween-80).

`N#CC1SC(C#N)C(c2ccc(Cl)cc2)OC1c1ccc(Cl)cc1` (stereo not given): the T/C is 93 % of control (dose: 6.25 mg/kg/injection, schedule: Q01DX005 (ip), vehicle: saline with Tween-80); 91 % of control (dose: 12.5 mg/kg/injection, schedule: Q01DX005 (ip), vehicle: saline with Tween-80); 90 % of control (dose: 25.0 mg/kg/injection, schedule: Q01DX005 (ip), vehicle: saline with Tween-80); 91 % of control under setting [2]; 104 % of control under setting [6].

For `CCOC(=O)C1=C(C(=O)c2cccc3ccccc23)C(c2ccc([N+](=O)[O-])cc2)C(C(=O)c2cccc3ccccc23)=C(C(=O)OCC)N1`, the T/C (dose: 60.0 mg/kg/injection, schedule: Q01DX005 (ip), vehicle: Klucel (hydroxypropylcellulose) (HPC)) was 87 % of control and 88 % of control; the T/C (dose: 120.0 mg/kg/injection, schedule: Q01DX005 (ip), vehicle: Klucel (hydroxypropylcellulose) (HPC)) is 87 % of control; the T/C (dose: 240.0 mg/kg/injection, schedule: Q01DX005 (ip), vehicle: Klucel (hydroxypropylcellulose) (HPC)) is 86 % of control and 95 % of control.

On to `C=C1C(=O)OC2/C=C(\C)CC(O)/C=C(/CO)CC(OC(=O)/C(C)=C/C)C12` (stereo not given), for which the T/C is, setting by setting: (dose: 7.5 mg/kg/injection, schedule: Q01DX009 (ip), vehicle: saline + alcohol) 111 % of control; (dose: 10.0 mg/kg/injection, schedule: Q01DX009 (ip), vehicle: saline + alcohol) 121 % of control.

Consider `COC(=O)C1(C)CC2C(C)(CCC3(C)C4=CC=C5C(=CC(=O)C(O)=C5C)C4(C)CCC23C)CC1O` (stereo not given), for which the T/C was 100 % of control (dose: 6.25 mg/kg/injection, schedule: Q01DX001 (ip), vehicle: saline with Tween-80); 99 % of control (dose: 12.5 mg/kg/injection, schedule: Q01DX001 (ip), vehicle: saline with Tween-80); 99 % of control (dose: 25.0 mg/kg/injection, schedule: Q01DX001 (ip), vehicle: saline with Tween-80); 100 % of control (dose: 100.0 mg/kg/injection, schedule: Q01DX001 (ip), vehicle: saline with Tween-80).

On to `c1ccc2nc(N3CCCC3)c(N3CCCCCC3)nc2c1`, for which the T/C was 100 % of control under setting [10], 100 % of control under setting [15] and 107 % of control under setting [11].

In the case of `Cc1c/c(=N\O)c2c(=O)ccoc2n1O`, the T/C is, setting by setting: (dose: 50.0 mg/kg/injection, schedule: Q01DX009 (ip), vehicle: suspension in saline) 99 % of control; (dose: 100.0 mg/kg/injection, schedule: Q01DX009 (ip), vehicle: suspension in saline) 98 % of control; (dose: 200.0 mg/kg/injection, schedule: Q01DX009 (ip), vehicle: suspension in saline) 97 % of control.

With `CCCSCN(CC)CC`, the T/C under setting [16] is 95 % of control, the T/C under setting [17] was 90 % of control and the T/C under setting [18] is 114 % of control.

On to `COc1ccc(NC(=O)Oc2ccc3c(C)cc(=O)oc3c2)c(OC)c1`, for which the T/C runs as follows: (dose: 100.0 mg/kg/injection, schedule: Q01DX009 (ip), vehicle: saline with Tween-80) 122 % of control; (dose: 200.0 mg/kg/injection, schedule: Q01DX009 (ip), vehicle: saline with Tween-80) 121 % of control; (dose: 400.0 mg/kg/injection, schedule: Q01DX009 (ip), vehicle: saline with Tween-80) 91 % of control.

On to `Cc1nn(C(=S)S)c(C)c1N=Nc1ccc(Br)cc1`, for which the T/C is 113 % of control (dose: 100.0 mg/kg/injection, schedule: Q04DX002 (ip), vehicle: Klucel (hydroxypropylcellulose) (HPC)); 90 % of control (dose: 200.0 mg/kg/injection, schedule: Q04DX002 (ip), vehicle: Klucel (hydroxypropylcellulose) (HPC)); 112 % of control (dose: 400.0 mg/kg/injection, schedule: Q04DX002 (ip), vehicle: Klucel (hydroxypropylcellulose) (HPC)).

For `O=S1(=O)CCN(Cc2ccccn2)CC1`, the T/C is, setting by setting: under setting [16], 94 % of control; under setting [17], 94 % of control; under setting [18], 91 % of control.

Regarding `CCN1C(=O)C(N2CCCCC2)S/C1=C\C(=O)O` (stereo not given), the T/C was 97 % of control under setting [3], 110 % of control under setting [4] and 107 % of control under setting [5].
